Reference: patent US20020065279A1, “Arylsulfonic acid salts of pyrimidine-based antiviral” (priority 2000, published 2002)
Counter-ions that a name gives are not always drawn. Like-named read-outs stand apart in the source and are kept apart here.

Columns and labels:
[1] = Acid selection: salt formation of compound 1 with acids; format: physicochemical
Excerpt: In order to prepare suitable formulations of the compounds of formula I below, standard salt formation methods were pursued. […] These acids represent most of the pharmaceutical salts used today.

[2] = Aqueous stability of salts in deionized water (HPLC, UV 254.4 nm); format: physicochemical
Experimental: The tosylate salts was evaluated at a concentration of 4.7 mg/mL and the besilate salt was evaluated at a concentration of 3.2 mg/mL. Stability was monitored via HPLC using UV detection at 254.4 nm.

[3] = Aqueous solubility of compound 1 free base and salts; format: physicochemical
Excerpt: A variety of pyrimidine-based antiviral compounds have been described in co-pending U.S. Ser. No. 09/249,64 1, filed Feb. 12, 1999 and in PCT application US99/03136. The development of a pyrimidine-based antiviral agent (such as those described hereinbelow) for clinical use required the identification of a salt form with optimal physical and chemical properties. The most critical properties included crystallinity, aqueous solubility, light stability and thermal stability. As noted above, applications U.S. Ser. No. 09/249,641 and PCT US99/03136 describe pyrimidine derivatives both as free bases and as their pharmaceutically acceptable salts. Among the salts listed for this group of compounds exre hydrochloric, hydrobromic, nitric, carbonic, monohydrogencarbonic, phosphoric, monohydrogenphosphoric, dihydrogenphosphoric, sulfuric, monohydrogensulfuric, hydriodic, or phosphorous acids and the like, as well as the salts derived from organic acids like acetic, propionic, isobutyric, oxalic, maleic, malonic, benzoic, succinic, suberic, fumaric, mandelic, phthalic, benzenesulfonic, p-tolylsulfonic, citric, tartaric, miethanesulfonic, and the like. Also included are salts of amino acids such as arginate and the like, and salts of organic acids like glucuronic or galactunoric acids and the like.
The besilate and tosylate salts represent improvement over the free base in solubility as described in Table 2 below. The increase in solubility represents a significant advantage over the free base for formulations that are suitable for therapeutic administration.

[4] = Thermal stability of salts at 45° C. (HPLC purity); format: physicochemical
[5] = Light stability of salts (ambient light and window glass filtered sunlight, HPLC purity); format: physicochemical
[6] = pKa of the free base of compound 1
[7] = first printed pKa of the acid; cited from earlier work

O=C(O)c1cccc(O)c1 [3-Hydroxybenzoic]
Result (salt formation with compound 1) ([1]; Solvent EtOAc): No salt formed

CC(=O)O [Acetic]
Result (salt formation with compound 1) ([1]; Solvent Et2O): No salt formed

O=C(O)c1ccccc1 [Benzoic]
Result (salt formation with compound 1) ([1]; Solvent Et2O): No salt formed | Result (salt formation with compound 1) ([1]; Solvent EtOAc): No salt formed

Cc1nc(N2CCOCC2C)nc(-n2ccnc2)c1[N+](=O)[O-] (stereo not drawn) [Besilate Salt, 2-(3S-3-methylmorpholino)-4-(imidazol-1-yl)-6-methyl-5-nitropyrimidine benzenesulfonate]
purity %, HPLC (aqueous stability) ([2]; 3.2 mg/mL, 48 hours): 100% | purity %, HPLC (aqueous stability) ([2]; 3.2 mg/mL, 147 hours): 100% | purity %, HPLC (aqueous stability) ([2]; 3.2 mg/mL, 171 hours): 97.4% | purity %, HPLC (aqueous stability) ([2]; 3.2 mg/mL, 201 hours): 91.7% | purity %, HPLC (aqueous stability) ([2]; 3.2 mg/mL, 216 hours): 91.7% | purity %, HPLC (aqueous stability) ([2]; 3.2 mg/mL, 1560 hours): 61.4% | Aqueous Solubility ([3]; listed as Resilate Salt): 44 mg/mL | purity %, HPLC (thermal stability) ([4]; 8 hours): 100% | purity %, HPLC (thermal stability) ([4]; 24 hours): 100% | purity %, HPLC (thermal stability) ([4]; 48 hours): 100% | purity %, HPLC (thermal stability) ([4]; 72 hours): 100% | purity %, HPLC (thermal stability) ([4]; 170 hours): 100% | purity %, HPLC (thermal stability) ([4]; 250 hours): 100% | purity %, HPLC (thermal stability) ([4]; 1632 hours): 100% | purity %, HPLC (light stability) ([5]; 24 hours): 100% | purity %, HPLC (light stability) ([5]; 48 hours): 100% | purity %, HPLC (light stability) ([5]; 216 hours): 97.3% | purity %, HPLC (light stability) ([5]; 1560 hours): 93.1%

O=C(O)CC(O)(CC(=O)O)C(=O)O [Citric]
Result (salt formation with compound 1) ([1]; Solvent Et2O): No salt formed | Result (salt formation with compound 1) ([1]; Solvent EtOAc): No salt formed | Result (salt formation with compound 1) ([1]; Solvent EtOAc/MeOH): No salt formed

Cc1nc(N2CCOCC2C)nc(-n2ccnc2)c1[N+](=O)[O-] (stereo not drawn) [Compound 1, 2-(3S-3-methylmorpholino)-4-(imidazol-1-yl)-6-methyl-5-nitropyrimidine]
Aqueous Solubility [3]: 1.68 mg/mL | pKa [6]: 4.09

O=C(O)[C@@H](O)[C@H](O)C(=O)O [D-Tartaric]
Result (salt formation with compound 1) ([1]; Solvent EtOAc): No salt formed | Result (salt formation with compound 1) ([1]; Solvent MeOH): No salt formed

O=CO [Formic]
Result (salt formation with compound 1) ([1]; Solvent EtOH): No salt formed

Br [Hydrobromic]
Result (salt formation with compound 1) ([1]; Solvent EtOH): Decomposition

Cl [Hydrochloric]
Result (salt formation with compound 1) ([1]; Solvent CH3CN): Decomposition | Result (salt formation with compound 1) ([1]; Solvent CHCl3): Decomposition | Result (salt formation with compound 1) ([1]; Solvent Et2O): Decomposition | Result (salt formation with compound 1) ([1]; Solvent EtOAc): Decomposition | Result (salt formation with compound 1) ([1]; Solvent IPA): Decomposition | Result (salt formation with compound 1) ([1]; Solvent MeOH): Decomposition

O=C(O)/C=C\C(=O)O [Maleic]
Result (salt formation with compound 1) ([1]; Solvent Et2O): No salt formed | Result (salt formation with compound 1) ([1]; Solvent EtOAc): No salt formed

CS(=O)(=O)O [Methanesulfonic]
Result (salt formation with compound 1) ([1]; Solvent CH2Cl2): Decomposition | Result (salt formation with compound 1) ([1]; Solvent Et2O): Decomposition | Result (salt formation with compound 1) ([1]; Solvent EtOAc): Decomposition | Result (salt formation with compound 1) ([1]; Solvent EtOAc/CH2Cl2): Decomposition | Result (salt formation with compound 1) ([1]; Solvent EtOAc/hexanes): Decomposition

O=[N+]([O-])O [Nitric]
pKa (acid) [7]: −1.4 | Result (salt formation with compound 1) ([1]; Solvent EtOH): Decomposition

O=C(O)c1ccccc1O [Salicylic]
Result (salt formation with compound 1) ([1]; Solvent Et2O): No salt formed | Result (salt formation with compound 1) ([1]; Solvent EtOAc): No salt formed

NC(=O)CCC(=O)O [Succinamic]
pKa (acid) [7]: 4.4 | Result (salt formation with compound 1) ([1]; Solvent EtOAc): No salt formed | Result (salt formation with compound 1) ([1]; Solvent EtOAc/MeOH): No salt formed

O=S(=O)(O)O [Sulfuric]
Result (salt formation with compound 1) ([1]; Solvent EtOH): Decomposition

Cc1ccc(S(=O)(=O)O)cc1 [Toluenesulfonic]
Result (salt formation with compound 1) ([1]; Solvent CHCl3/hexanes): Yellow crystals | Result (salt formation with compound 1) ([1]; Solvent EtOAc): Yellow crystals

Cc1nc(N2CCOCC2C)nc(-n2ccnc2)c1[N+](=O)[O-] (stereo not drawn) [Tosylate Salt, 2-(3S-3-methylmorphoamino)-4-(imidazol-1-yl)-6-methyl-5-nitropyrimidine p-toluenesulfonate]
purity %, HPLC (aqueous stability) ([2]; 4.7 mg/mL, 48 hours): 100% | purity %, HPLC (aqueous stability) ([2]; 4.7 mg/mL, 147 hours): 100% | purity %, HPLC (aqueous stability) ([2]; 4.7 mg/mL, 171 hours): 97.3% | purity %, HPLC (aqueous stability) ([2]; 4.7 mg/mL, 201 hours): 93.1% | purity %, HPLC (aqueous stability) ([2]; 4.7 mg/mL, 216 hours): 92.8% | purity %, HPLC (aqueous stability) ([2]; 4.7 mg/mL, 1560 hours): 64.6% | Aqueous Solubility [3]: 36 mg/mL | purity %, HPLC (thermal stability) ([4]; 8 hours): 100% | purity %, HPLC (thermal stability) ([4]; 24 hours): 100% | purity %, HPLC (thermal stability) ([4]; 48 hours): 100% | purity %, HPLC (thermal stability) ([4]; 72 hours): 100% | purity %, HPLC (thermal stability) ([4]; 170 hours): 100% | purity %, HPLC (thermal stability) ([4]; 250 hours): 100% | purity %, HPLC (thermal stability) ([4]; 1632 hours): 100% | purity %, HPLC (light stability) ([5]; 24 hours): 100% | purity %, HPLC (light stability) ([5]; 48 hours): 100% | purity %, HPLC (light stability) ([5]; 216 hours): 97.6% | purity %, HPLC (light stability) ([5]; 1560 hours): 86.6%

Benzenesulfonic
pKa (acid) [7]: 1.6 | Result (salt formation with compound 1) ([1]; Solvent CH2Cl2/hexanes): Yellow crystals | Result (salt formation with compound 1) ([1]; Solvent CH3CN): Yellow crystals | Result (salt formation with compound 1) ([1]; Solvent CHCl3/hexanes): Yellow crystals | Result (salt formation with compound 1) ([1]; Solvent EtOAc/MeOH): Yellow crystals | Result (salt formation with compound 1) ([1]; Solvent EtOH): Yellow crystals | Result (salt formation with compound 1) ([1]; Solvent EtOH/hexanes): Yellow crystals

Fumaric
Result (salt formation with compound 1) ([1]; Solvent EtOAc/MeOH): No salt formed

L-Tartaric
Result (salt formation with compound 1) ([1]; Solvent Et2O): No salt formed | Result (salt formation with compound 1) ([1]; Solvent EtOAc): No salt formed | Result (salt formation with compound 1) ([1]; Solvent EtOH): No salt formed | Result (salt formation with compound 1) ([1]; Solvent MeOH): No salt formed
